Assay [1] has as its system tail-flick withdrawal latency. The assay can be described thus: Tail-flick test. The assay is classed as in vivo, ICR mice. Conditions: mouse, oral. Here is the method: To examine the pain relief effect of the sulfamate compounds, a tail-flick test was conducted in general pain animal model referring to Current Protocols in Neuroscience; Behavioral Neuroscience Unit 8.9.
ICR mice (male, 25-30 g; Orient Bio, Korea) were habituated before test in test room for 1 hour. Animals were fasted 2 hr before administration of compounds. Each of Compound was orally administered at the close of 150 mg/kg, 10 ul/g, bw (n=7˜10/group). All compounds were dissolved in a vehicle of 30% (v/v) PEG 400 or 20% (v/v) Tween 80. The control group was treated the vehicle without compounds.
After the administration of compounds, the mice tail were put on a tail-flick analgesia meter. To avoid tissue damage, maximal exposure time to pain stimuli was restricted to 15 s. The withdrawal latency was measured as the time to the point when each mouse response to the stimulus. The relative values compared to the control (% control) were calculated.
The relative values compared to the sham were calculated and shown in Table 12, which show effect of the compound of examples on tail-flick test in […].
(In general: Hot-plate and tail-flick tests time the reaction to a heat stimulus.)

For the next assay, the system named is SNL model. The assay can be described thus: Antiallodynic activity on Chung model (SNL, spinal nerve ligation; von Frey). The assay is classed as in vivo, Sprague-Dawley rats. Conditions: rat, oral, 0.5 h; for ED50: von Frey. The protocol:
Male. Sprague-Dawley rats (200-220 g, Orient Bio, Korea) were habituated for 1 week before the experiment and allowed free access to food and water throughout the experimentation. Room temperature and humidity were maintained at 24±2° C. and 50±10%, respectively. Neuropathic surgery (SNL, Spinal nerve ligation) model was clone as described in Kim and Chung (1992). Briefly, animal under gaseous anesthesia with isoflurane a 4:4 flow ratio of NO2. The left lumber spinal nerve L5 and L6 were isolated and tightly ligated with 4-0 silk thread. The wound was treated with a gentamicin antibiotics solution (4 mg/kg, 4 ul/g, bw), and the wound muscle was closed with cat cut chrom 4/0 thread and skin was closed dafilon 4/0 tread. Sham controls were prepared in the same manner as the spinal nerves were exposed, but no ligated L5 and L6 nerves. But, vehicle controls were identical to SNL model, except for administration of vehicles.
(§1) Tactile sensitivity (Mechanical allodynia) was evaluated using von Frey monofilaments before and after treatment and animals were used withdrawal threshold value was less than 4 g. One week after surgery, SNL-operated animals (n=4˜6), sham-operated animals (n=4˜10) and vehicle-operated animals (n=4˜13) were tested for tactile sensitivity with von Frey monofilaments 3 trials in each animal. All Animals were placed in a stainless steel mashed chamber and habituated for 30 min in the test box. The tactile sensitivity for ipsilateral hind paw was measured using the up-and-down method (Dixon, 1980) with seven von Frey monofilaments (0.4, 1, 2, 4, 6, 8, and 15 g) to 3 trials. Tactile sensitivity test was followed by Dixon's method (Dixon, 1980). The 50% paw withdrawal threshold for each paw was calculated using the following formula: [Xth] log=[vFr] log+ky where [vFr] is the force of the last von Frey used, k=0.2249 which is the average interval (in log units) between the von Frey monofilaments, and y is a value that depends upon the pattern of withdrawal responses (Dixon, 1980).
All animals were fasted 18 h before the administration of the compounds. The antiallodynic effect of the compounds were evaluated at the various dose (n=5˜6), orally administrated in a volume of 5 ul/g, bw in a vehicle of 30% (v/v) PEG 400 or 20% (v/v) Tween 80 or Saline. […]
The relative values compared to the sham group (% control) were calculated and shown in Table 5, which show an antiallodynic effect of the test compounds on SNL model in rats.

Assay [2] relates to hot plate withdrawal latency. The assay can be described thus: Hot-plate test. It counts as in vivo, ICR mice. The following applies: mouse, oral. The protocol:
To examine the pain relief effect of the sulfamate derivative compounds, a hot-plate test was conducted in general pain animal model referring to Current Protocols in Neuroscience; Behavioral Neuroscience Unit 8.9.
ICR mice (male, 30-35 g: Orient Bio, Korea) were habituated before test in test room for 1 hour. Animals were fasted 2 hr before administration of compounds. […] All compounds were dissolved in a vehicle of 30% (v/v) PEG 400 or 20% (v/v) Tween 80. The control group was treated the vehicle without compounds.
[…] (Hu, X. et al, 2008), and then, measured as the withdrawal latency (cut-off time: 30 sec) time until the point when each mouse was taking off a paw from the plate, shaking, licking a paw or hind leg, or jumping from the plate.

For the next assay, the system named is CFA-induced pain model. The assay can be described thus: Antiallodynic activity on Complete Freund's Adjuvant (CFA)-induced inflammatory pain model (von Frey). It counts as in vivo, Sprague-Dawley rats. Conditions: Rattus norvegicus, ip, 0.5 h, 0.5 h, read-out: CFA model: effect (%) at the concentration administered. The protocol: Male, Sprague-Dawley rats (200-220 g, Nara Bio, Korea) were habituated for 1 week before surgery and allowed free access to food and water throughout the experimentation. Room temperature and humidity were maintained at 24±2° C. and 50±10%, respectively.
CFA-induced inflammatory pain was induced by the procedure of Nagakura et al. (2003) and Gregory P. et al. (2010) with minor modifications. CFA (sigma, USA) was injected in the left plantar with a 100 ul volume under gaseous anesthesia with isoflurane a 4:4 flow ratio of NO2 Sham controls were injected with 100 ul of saline and vehicle controls were identical to CFA infusion model, except for administration of vehicles.
as §1, with “treatment,” for “treatment”, “CFA-infused” for “SNL-operated”, “(n=12),” for “(n=4˜10)”, “(n=17)” for “(n=4˜13)”
[…] The test was performed peak time of efficacy (0.5 hr) after compound administration.
The relative values compared to the sham (% control) were calculated and shown in Table 4, which show an antiallodynic effect of the compound of Examples on CFA-induced pain model in rats.

Assay [3] relates to Post operation-induced pain model. The assay can be described thus: Antiallodynic activity on post operative-induced pain model (von Frey). The assay is classed as in vivo, Sprague-Dawley rats. The following applies: 2 mg/kg, 0.5 h, rat, intraperitoneal. Here is the method: Male Sprague-Dawley rats′(Orient Bio, Korea), 300˜320 g, total of 201 rats were used (details in Table 7). Rats were habituated at least 3 clays before surgery and free access to food and water (room temperature and humidity were maintained at 24±2° C. and 50±10%, respectively). The process of performing the post-operation model's surgery was adapted from Brennan et al (1996). At first, rats with allodynia (threshold valueless than 8 g) were excluded in Pre-von Frey Test. During the post-operation surgery, rats were anesthetized under gaseous anesthesia with 2% isoflurane. Rats were laid face down on a plate fixed at 37° C. to prevent against hypothermia. The ipsilateral plantar aspect (left side) of the hind paw was prepared in a sterile manner with a 10% povidone-iodine solution. […]
For efficacy measure, the threshold value of group C was assigned 100% efficacy, and the percentage of the threshold values of group A compared to group C (for each different dose level) were calculated as the efficacies. Base on these efficacy values, ED50 was calculated using log fitting. […]
For pain threshold test, all animals were placed in a stainless steel meshed chamber and habituated for 30 min in the test box. The tactile sensitivity of the ipsilateral hind paw was measured using the up-and-down method (Dixon, 1980) with seven von Frey monofilaments (0.4, 1, 2, 4, 6, 8, and 15 g) using 3 trials. […]

As a reminder, the ED50 is the dose that gives a 50% effect, or the effect in half of the subjects. In turn, `CC1(C)O[C@H](c2ccccc2F)[C@@H](COS(N)(=O)=O)O1` [Example 15, ((4R,5R)-5-(2-fluorophenyl)-2,2-dimethyl-1,3-dioxolan-4-yl)methyl sulfamate] showed a tail-flick test: dose in assay [1] greater than 200 mg/kg. The ED50 was found to be 69.8 mg/kg in the assay on SNL model and 113 mg/kg in assay [2] (0.5 h).
`CC1(C)O[C@@H](COS(N)(=O)=O)[C@H](c2ccccc2F)O1` [Example 16, ((4S,5S)-5-(2-fluorophenyl)-2,2-dimethyl-1,3-dioxolan-4-yl)methyl sulfamate]: in assay [1], the tail-flick test: dose is greater than 200 mg/kg. The ED50 with SNL model was 24.6 mg/kg; in assay [2] (1 h), 116 mg/kg.
`CC1(C)O[C@@H](COS(N)(=O)=O)[C@H](c2ccccc2I)O1` [Example 28, ((4S,5S)-5-(2-iodophenyl)-2,2-dimethyl-1,3-dioxolan-4-yl)methyl sulfamate]: the tail-flick test: dose in assay [1] was greater than 200 mg/kg. In addition, the response vs control in vivo at 40 mg/kg in the assay on CFA-induced pain model (40 mg/kg, rat, intraperitoneal) came out at 17.8%. Also, in the assay on SNL model (90 mg/kg, read-out: SNL model: effect (%) at the concentration administered), the response vs control in vivo at 90 mg/kg turned out to be 72.6%. The “Hot plate test: effect (%) at the concentration administered” value in assay [2] (100 mg/kg) is recorded as “^#100 (126.4%)”.
Consider `CC1(C)O[C@@H](COS([NH-])(=O)=O)[C@H](c2ccccc2Cl)O1.[Na+]` [Example 177, sodium ((((4S,5S)-5-(2-chlorophenyl)-2,2-dimethyl-1,3-dioxolan-4-yl)methoxy)sulfonyl)amide], for which the “Post Operation: effect (%) at the concentration administered” value in assay [3] is listed as “^#2 (64.4%, 0.5 h)”. Moreover, the response vs control in vivo at 15 mg/kg in the assay with CFA-induced pain model was 67.2%.

The values above are taken from US9834535B2, “Sulfamate derivative compounds for use in treating or alleviating pain” (Bio-Pharm Solutions Co., Ltd., priority 2013, dated 2017).
